In brackets after ≈: the same amount, converted by molar mass. Read-outs that look alike come from different tables or passages of the source.
Columns and labels:
[1] = test system: Toxoplasma gondii RH-GFP tachyzoites; test: In vitro anti-Tg assay (RH-GFP tachyzoite proliferation in Hs27 cells); format: cell-based; conditions: for SI (selectivity index, CC30/IC50Tg): CC30 in Hs27 / IC50Tg; for IC50: Toxoplasma gondii, HS27, 96 h, read-out: IC50Tg in Tg-Infected Hs27 Cells
T98G glioblastoma cells = test: Cytotoxicity against human glioblastoma T98G cells (MTT); format: cell-based; conditions: 24 h, read-out: IC50 against T98G cells
Description: The T98G glioblastoma cells (ATTC, CRL-1690, Manassas, VA, USA) were cultured in Dulbecco’s Modified Eagle Medium (DMEM, high glucose) (Sigma Aldrich, St. Louis, MO, USA), supplemented with 10% heat-inactivated FBS, penicillin (100 U/mL), and streptomycin (100 U/mL) (Sigma Aldrich, St. Louis, MO, USA). Cells were maintained in a humidified atmosphere of 5% CO2 and 95% air at 37 °C. Stock solutions of the investigated compounds (2, 7, 8 and 10, and temozolomide) were prepared by dissolving solid substances in sterile DMSO. T98G glioblastoma cells were seeded into 96-well sterile plates at a density of 4 × 10^4 cells/mL. After 24 h of incubation, the medium was removed from each well, and then the cells were incubated for the next 24 h with different concentrations of the investigated compounds ([…]) in the medium that contained 2% FBS. Viability of the T98G cells was evaluated using MTT assay. In brief, after 24 h of incubation of the cells with varying concentrations, 15 μL of MTT solution (5 mg/mL) was added to each well. After 3 h of incubation, […] (per well) of 10% SDS buffer solution was added. After overnight incubation, the absorbance was measured at 570 nm using a microplate reader (Epoch, BioTek Instruments, Winooski, VT, USA). Experiments were repeated three times, and the measurements in each experiment were run in quadruplicate. Viability of the investigated cells was expressed as % of the viability of the untreated cells.

human red blood cells = test: Hemolytic activity determination; format: cell-based
Description: Human red blood cell (RBC) concentrate was obtained from the Regional Blood Donation and Transfusion Centre (Lublin, Poland). The RBC concentrate (5 mL) was washed three times with sterile PBS and centrifuged at 500× g for 3 min. The obtained pellet was resuspended using sterile PBS in order to obtain a 2% suspension of RBCs, which was subsequently mixed with 1 mL of different concentrations (i.e., […]) of 2, 7, 8, and 10. The mixtures were incubated at 37 °C for 30 min and centrifuged at 1400× g for 10 min. The amount of free hemoglobin in the supernatants was measured spectrophotometrically at 405 nm. Negative and positive controls were performed by incubating RBCs with sterile PBS and 0.1% Triton-X, respectively. Each experiment was run in triplicate.

[2] = test system: Danio rerio embryos and larvae; test: Fish embryo toxicity test (FET); format: in vivo; conditions: for Toxicity to zebrafish embryos and larvae: 5 µg/mL and 10 µg/mL, within 96 h of observation; for Mortality and deformity / Concentration at which the impact on occurrence of deformations was noticeable: zebrafish, 96 h exposure; for Mortality and deformity: concentrations above 50 μg/mL
Description: Danio rerio (Experimental Medicine Centre, Medical University of Lublin, Poland) were maintained at 28 ± 0.5 °C, under a 14/10 h light/dark cycle with standard aquaculture conditions. After mating, the fertilized eggs were collected within 30 min. Embryos were reared in E3 embryo medium (pH 7.1–7.3; […]) in an incubator (IN 110 Memmert GmbH, Germany) at 28 ± 0.5 °C. The eggs were examined to remove the unfertilized, coagulated and damaged samples. The FET test was performed based on the OECD Guidelines for the Testing Chemicals, Test No. 236. TZD hybrids were weighted, dissolved in DMSO as stock solutions, and diluted in E3 embryo medium to the indicated treatment concentrations. The stock of TZD hybrids and dilutions in E3 embryo medium were freshly prepared before testing. Embryos were incubated at each concentration (5, 10, 15, 25, 50, 75; 100 μg/mL) of TZD hybrids. The final DMSO concentration had no detectable effects on zebrafish development. The test was conducted in 24-well plates, with 5 embryos per well and 10 per group, in triplicate. The covered plates were kept at 28 ± 0.5 °C under the light/dark conditions (12 h/12 h). Embryonic viability, and the malformation rates of each treatment group were recorded at 24, 48, 72, and 96 hpf. All experiments were conducted in accordance with the National Institute of Health Guidelines for the Care and Use of Laboratory Animals and the European Community Council Directive for the Care and Use of Laboratory Animals (2010/63/EU). For the experiments on larvae up to 5 dpf, the agreement of the Local Ethical Commission is not required.

in vitro = in vitro ADME; conditions: PAMPA, pH 7.4
Description: BBB permeability of 2, 7, 8, and 10 was investigated using a parallel artificial membrane permeability assay (PAMPA) method. The PAMPA system, which consisted of a 96-well microfilter plate, was divided into the following two chambers: a donor at the bottom and an acceptor at the top, separated by a 120 µm thick microfilter disc coated with BBB lipid solution (Pion, Inc., Billerica, MA, USA). The solutions of 2, 7, 8, and 10 were prepared in dimethylsulfoxide (DMSO) at 4 mg/mL concentration, and then diluted with Prisma buffer (pH = 7.4) to obtain the donor drug solution with the final nominal concentration of 20 µg/mL. Then, 180 µL of the donor solution was added to the donor wells. Subsequently, each filter membrane of the top plate was coated with 5 µL of BBB-1 lipid solution (Pion Inc., Billerica, MA, USA) and the acceptor well was filled with 200 µL of brain sink buffer (BSB). The acceptor plate and the donor plate were sandwiched together and incubated at 37 °C for 180 min.
The permeability coefficient value (Pe) was calculated using the following equation: Pe=−ln (1−CA/Cequilibrium)/S×(1/VD+1/VA)×t where VD—donor volume, VA—acceptor volume, Cequilibrium—equilibrium concentration, Cequilibrium=CD×VD+CA×VA/VD+VA , CD—donor concentration, CA—acceptor concentration, S—membrane area and t—incubation time (in seconds).

[3] = concentration reducing Hs27 viability by 30%, MTT, 24 h

SMILES | CC30 in Hs27 Cells (Hs27 cells; [3]) | SI (selectivity index, CC30/IC50Tg) [1] | IC50 [1] | CC30 in Hs27 Cells (Hs27 cells; human) | IC50 (T98G glioblastoma cells) | Hemolytic activity (in words) (human red blood cells) | Toxicity to zebrafish embryos and larvae [2] | Mortality and deformity [2] | Papp at 180 min, 20 µg/mL (in vitro) | Concentration at which the impact on occurrence of deformations was noticeable [2]
O=C1C(O)=C([C@H]2CC[C@H](c3ccc(Cl)cc3)CC2)C(=O)c2ccccc21 [ATO, atovaquone, reference compound] | 54.26 µg/mL (≈ 148 µM) | 227.55 | 0.24 µg/mL (≈ 0.654 µM) | – | – | – | – | – | – | –
CCc1nc(N)nc(N)c1-c1ccc(Cl)cc1 [PYR, pyrimethamine, reference compound] | 49.62 µg/mL (≈ 200 µM) | 17.38 | 2.86 µg/mL (≈ 11.5 µM) | – | – | – | – | – | – | –
Nc1ccc(S(=O)(=O)Nc2ncccn2)cc1 [SDZ, sulfadiazine, reference compound] | – | 1.78 | 1250 µg/mL (≈ 5010 µM) | 2230.61 µg/mL (≈ 8910 µM) | – | – | – | – | – | –
COc1cc(Cc2cnc(N)nc2N)cc(OC)c1OC [TRI, trimethoprim, reference compound] | – | 5.53 | 14.8 µg/mL (≈ 50.9 µM) | 81.82 µg/mL (≈ 282 µM) | – | – | – | – | – | –
Cn1nnc2c(C(N)=O)ncn2c1=O [Temozolomide, temozolomide, reference compound] | – | – | – | – | > 100 µg/mL | – | – | – | – | –
O=C(/C=C1\SC(=O)NC1=O)Oc1cccc(/C=N/NC(=O)c2ccncc2)c1 [compound 1] | 128.27 µg/mL (≈ 324 µM) | 9.92 | 12.9 µg/mL (≈ 32.6 µM) | – | – | – | – | – | – | –
O=C(CC1SC(=O)NC1=O)Oc1ccc(/C=N/NC(=O)c2ccncc2)cc1 (centres unmarked) [compound 2] | >995.98 µg/mL | >118.93 | 8.37 µg/mL (≈ 21 µM) | – | 19.4 ± 1.13 µg/mL (≈ 48.6 µM) | no specific hemolytic activity | not toxic | 100% | 12.4 ± 1.02 ×10⁻⁶ cm/s | –
COc1cc(/C=N/NC(=O)c2ccncc2)ccc1OC(=O)CC1SC(=O)NC1=O (centres unmarked) [compound 3] | >1071.05 µg/mL | >48.35 | 22.1 µg/mL (≈ 51.7 µM) | – | – | – | – | – | – | –
CCOc1cc(/C=N/NC(=O)c2ccncc2)ccc1OC(=O)CC1SC(=O)NC1=O (centres unmarked) [compound 4] | 654.42 µg/mL (≈ 1480 µM) | 16.77 | 39 µg/mL (≈ 88.2 µM) | – | – | – | – | – | – | –
O=C(CC1SC(=O)NC1=O)Oc1ccc(/C=N/NC(=O)c2ccncc2)cc1Cl (centres unmarked) [compound 5] | >1082.10 µg/mL | >44.48 | 24.3 µg/mL (≈ 56.2 µM) | – | – | – | – | – | – | –
O=C(CC1SC(=O)NC1=O)Oc1ccc(/C=N/NC(=O)c2ccncc2)cc1Br (centres unmarked) [compound 6] | >1193.22 µg/mL | >43.81 | 27.2 µg/mL (≈ 57.1 µM) | – | – | – | – | – | – | –
NC(=S)N/N=C/c1ccc(OC(=O)CC2SC(=O)NC2=O)cc1 (centres unmarked) [compound 7] | >880.97 µg/mL | >148.28 | 5.94 µg/mL (≈ 16.9 µM) | – | > 100 µg/mL | no specific hemolytic activity | not toxic | 100% | 23.1 ± 0.71 ×10⁻⁶ cm/s | 25000 ng/mL
NC(=S)N/N=C/c1ccc(OC(=O)CC2SC(=O)NC2=O)c(Cl)c1 (centres unmarked) [compound 8] | >967.09 µg/mL | >110.67 | 8.74 µg/mL (≈ 22.6 µM) | – | > 100 µg/mL | no specific hemolytic activity | not toxic | 100% | 26.1 ± 1.3 ×10⁻⁶ cm/s | 25000 ng/mL
NC(=S)N/N=C/c1ccc(OC(=O)CC2SC(=O)NC2=O)c(Br)c1 (centres unmarked) [compound 9] | >1078.21 µg/mL | >87.75 | 12.3 µg/mL (≈ 28.5 µM) | – | – | – | – | – | – | –
NC(=S)N/N=C/c1ccc(OC(=O)/C=C2\SC(=O)NC2=O)cc1 [compound 10] | 312.27 µg/mL (≈ 891 µM) | 58.71 | 5.32 µg/mL (≈ 15.2 µM) | – | 94.6 ± 6.16 µg/mL (≈ 270 µM) | no specific hemolytic activity | not toxic | 100% | 24.4 ± 0.93 ×10⁻⁶ cm/s | –
COc1cc(/C=N/NC(N)=S)ccc1OC(=O)/C=C1\SC(=O)NC1=O [compound 11] | >951.00 µg/mL | >78.81 | 12.1 µg/mL (≈ 31.7 µM) | – | – | – | – | – | – | –
NC(=S)N/N=C/c1ccc(OC(=O)/C=C2\SC(=O)NC2=O)c(Cl)c1 [compound 12] | >962.05 µg/mL | >94.59 | 10.2 µg/mL (≈ 26.4 µM) | – | – | – | – | – | – | –
